The record followed here is patent US20100120775A1, “Farnesoid X Receptor Agonists” (SMITHKLINE BEECHAM CORPORATION, priority 2006, published 2010).

SMILES strings stand for the structures.

For this assay, the target named is T1, Human FXRα Ligand Binding Domain (Homo sapiens, UniProt Q96RI1).
T1 construct: polyhistidine (pRSET-A vector) (N); made in house; host or cells: E. coli BL21 (DE3), pRSET-A vector
T1 sequence (Q96RI1 237-472 isoform Q96RI1-2): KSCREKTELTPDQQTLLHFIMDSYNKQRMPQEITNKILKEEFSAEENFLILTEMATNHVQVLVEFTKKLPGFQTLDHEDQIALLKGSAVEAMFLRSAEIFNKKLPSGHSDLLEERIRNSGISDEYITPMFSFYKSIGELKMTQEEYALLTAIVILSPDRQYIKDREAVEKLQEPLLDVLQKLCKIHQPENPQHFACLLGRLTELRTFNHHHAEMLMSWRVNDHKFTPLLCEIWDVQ
The experiment in a line: FXR Cofactor Binding Assay (FXR LBD / SRC-1 peptide, time resolved fluorescence). The conditions noted are these: FXRα LBD with biotinylated SRC-1 (LCD2, 676-700) peptide, read-out: Activity (pEC50) (converted). An excerpt: Determination of a ligand mediated cofactor peptide interaction to quantify ligand binding to the nuclear receptor Farnesoid X Receptor (FXR). The method measures the ability of putative ligands to modulate the interaction between the purified bacterial expressed FXRα ligand binding domain (LBD) and a synthetic biotinylated peptide based on residues 676-700 of steroid receptor coactivator-1 (SRC-1) (LXXLL-containing domain-2 where L is the amino acid leucine and X indicates any other amino acid (LCD2), 676-700). The sequence of the SRC-1 peptide used is as published in Iannone, M. A., et al., 2001 Cytometry 44:326-337 where the N-terminus was biotinylated (B) and the C-terminus was amidated. Detection of the associated complex was measured by time resolved fluorescence (TRF). The purified LBD of FXR was labeled with biotin then mixed with stoichiometric amounts of allophycocyanin (APC) labeled streptavidin (Molecular Probes). The biotinylated peptide was then mixed with a ½ stoichiometric amount of europium labeled streptavidin (Wallac Inc). Each was then blocked with a 5 fold excess of biotin and allowed to equilibrate for 15 min. Equimolar amounts of receptor and peptide were mixed together and were allowed to equilibrate for at least 30 min prior to the addition to either a variable or constant concentrations of the sample for which the affinity is to be determined. After equilibration, the time-resolved fluorescent signal was quantitated using a fluorescent plate reader. The affinity of the test compound was estimated from a plot of fluorescence versus concentration of test compound added.
A basal level of FXR: peptide formation is observed in the absence of added ligand. Ligands that promote the complex formation induce a concentration-dependent increase in time-resolved fluorescent signal. Compounds which bind equally well to both monomeric FXR and to the FXR: peptide complex would be expected to give no change in signal, whereas ligands which bind preferentially to the monomeric receptor would be expected to induce a concentration-dependent decrease in the observed signal.
Human FXRα Ligand Binding Domain (FXRα LBD) was expressed in E. coli strain BL21 (DE3) as an amino-terminal polyhistidine tagged fusion protein. Expression was under the control of an isopropyl-13-D-thiogalactopyranoside (IPTG) inducible T7 promoter. DNA encoding this recombinant protein is subcloned into the pRSET-A expression vector (Invitrogen). The coding sequence of Human FXRα LBD was derived from Genbank accession number U 68233 (amino acids 237 to 472).
Routinely, 30-40 g cell paste (equivalent to 2-3 liters of the fermentation batch) was resuspended in 200-250 mL Tris buffered saline (TBS), pH 7.2 (25 mM Tris-hydroxymethylamino methane (Tris), 150 mM sodium chloride). Cells were lysed by passing 3 times through a French Press and cell debris was removed by centrifugation (30 minutes, 20,000×gravity, 4° C.). The cleared supernatant was filtered through course pre-filters, and TBS, pH 7.2, 500 mM imidazole was added to obtain a final imidazole concentration of 50 mM. This lysate was loaded onto a column (6×8 cm) packed with Sepharose [Ni^|| charged]Chelation resin (Pharmacia) and pre-equilibrated with TBS pH 7.2/50 mM imidazole. After washing to baseline absorbance with equilibration buffer, the column was washed with one column volume of TBS pH 7.2 containing 90 mM imidazole. FXRα LBD was eluted directly with 365 mM imidazole. Column fractions were pooled and dialyzed against TBS, pH 7.2, containing 0.5 mM EDTA and 5 mM DTT. The dialyzed protein sample was concentrated using Centri-prep 10 K (Amicon) and subjected to size exclusion, using a column (3×90 cm) packed with Sepharose S-75 resin (Pharmacia) pre-equilibrated with TBS, pH 7.2, containing 0.5 mM ethylene diamine tetraacetic acid (EDTA) and 5 mM dithiothreitol (DTT). […]
As to `CC(C)c1onc(COc2c(F)cc(F)cc2F)c1COc1ccc(-c2ccc3nc(C(=O)O)ccc3c2)cc1` [Example 19, 6-(4-{[(5-(1-Methylethyl)-3-{[(2,4,6-trifluorophenyl)oxy]methyl}-4-isoxazolyl)methyl]oxy}phenyl)-2-quinolinecarboxylic acid], the EC50 was 102 to 1000 nM. The value for `O=C(O)c1ccc2cc(-c3ccc(OCc4c(-c5c(Cl)cccc5Cl)noc4C4CCC4)cc3)ccc2n1` [Example 7, 6-[4-({[5-Cyclobutyl-3-(2,6-dichlorophenyl)-4-isoxazolyl]methyl}oxy)phenyl]-2-quinolinecarboxylic acid] was 102 to 1000 nM; that for `CC(C)c1onc(C[S+]([O-])c2c(Cl)cccc2Cl)c1COc1ccc(-c2ccc3nc(C(=O)O)ccc3c2)cc1` (stereo not drawn) [Example 23, 6-[4-({[3-{[(2,6-Dichlorophenyl)sulfinyl]methyl}-5-(1-methylethyl)-4-isoxazolyl]methyl}oxy)phenyl]-2-quinolinecarboxylic acid] was 102 to 1000 nM. Turning to `CC[C@@H](C)c1onc(-c2c(Cl)cccc2Cl)c1COc1ccc(-c2ccc3nc(C(=O)O)ccc3c2)cc1` [Example 14, 6-{4-[({3-(2,6-Dichlorophenyl)-5-[(1R)-1-methylpropyl]-4-isoxazolyl}methyl)oxy]phenyl}-2-quinolinecarboxylic acid], the EC50 was 102 to 1000 nM. For `Cc1cccc(C)c1OCc1noc(C(C)C)c1COc1ccc(-c2ccc3cc(C(=O)O)ncc3c2)cc1` [Example 16, 7-[4-({[3-{[(2,6-Dimethylphenyl)oxy]methyl}-5-(1-methylethyl)-4-isoxazolyl]methyl}oxy)phenyl]-3-isoquinolinecarboxylic acid], the EC50 was 102 to 1000 nM.

Take `Cc1ccnc(C)c1-c1noc(C(C)C)c1COc1ccc(-c2ccc3nc(C(=O)O)ccc3c2)cc1` [Example 29, 6-[4-({[3-(2,4-Dimethyl-3-pyridinyl)-5-(1-methylethyl)-4-isoxazolyl]methyl}oxy)phenyl]-2-quinolinecarboxylic acid]: the EC50 was 102 to 1000 nM. The value for `Cc1cccc(C)c1OCc1noc(C(C)C)c1COc1ccc(-c2ccc3nc(C(=O)O)ccc3c2)cc1` [Example 18, 6-[4-({[3-{[(2,6-Dimethylphenyl)oxy]methyl}-5-(1-methylethyl)-4-isoxazolyl]methyl}oxy)phenyl]-2-quinolinecarboxylic acid] was 102 to 1000 nM. The value for `CC(C)c1onc(COc2c(Cl)cccc2Cl)c1COc1ccc(-c2ccc3nc(C(=O)O)ccc3c2)cc1` [Example 20, 6-[4-({[3-{[(2,6-Dichlorophenyl)oxy]methyl}-5-(1-methylethyl)-4-isoxazolyl]methyl}oxy)phenyl]-2-quinolinecarboxylic acid] was 102 to 1000 nM. Regarding `CC(C)c1onc(-c2c(Cl)cccc2Cl)c1COc1ccc(-c2ccc3nc(C(=O)O)cnc3c2)cc1` [Example 39, 6-[4-({[3-(2,6-Dichlorophenyl)-5-(1-methylethyl)-4-isoxazolyl]methyl}oxy)phenyl]-2-quinoxalinecarboxylic acid], the EC50 is 102 to 1000 nM. As to `CC(C)c1onc(CS(=O)(=O)c2c(Cl)cccc2Cl)c1COc1ccc(-c2ccc3nc(C(=O)O)ccc3c2)cc1` [Example 24, 6-[4-({[3-{[(2,6-Dichlorophenyl)sulfonyl]methyl}-5-(1-methylethyl)-4-isoxazolyl]methyl}oxy)phenyl]-2-quinolinecarboxylic acid], the EC50 is 1020 to 10000 nM. The value for `CC(C)c1onc(-c2c(Cl)cccc2Cl)c1COc1ccc(-c2ccc3nc(C(=O)O)ccc3c2)cc1` [Example 1g, 6-[4-({[3-(2,6-Dichlorophenyl)-5-(1-methylethyl)-4-isoxazolyl]methyl}oxy)phenyl]-2-quinolinecarboxylic acid] was 102 to 1000 nM; that for `O=C(O)c1cc2ccc(-c3ccc(OCc4c(-c5c(Cl)cccc5Cl)noc4C4CC4)cc3)cc2cn1` [Example 10, 7-[4-({[5-Cyclopropyl-3-(2,6-dichlorophenyl)-4-isoxazolyl]methyl}oxy)phenyl]-3-isoquinolinecarboxylic acid] was 102 to 1000 nM. On to `Cc1cc(OCc2c(-c3c(Cl)cccc3Cl)noc2C(C)C)ccc1-c1ccc2nc(C(=O)O)ccc2c1` [Example 33, 6-[4-({[3-(2,6-Dichlorophenyl)-5-(1-methylethyl)-4-isoxazolyl]methyl}oxy)-2-methylphenyl]-2-quinolinecarboxylic acid], for which the EC50 was 102 to 1000 nM.

Turning to `CC(C)c1onc(-c2c(Cl)ccnc2Cl)c1COc1ccc(-c2ccc3nc(C(=O)O)ccc3c2)cc1` [Example 28, 6-[4-({[3-(2,4-Dichloro-3-pyridinyl)-5-(1-methylethyl)-4-isoxazolyl]methyl}oxy)phenyl]-2-quinolinecarboxylic acid], the EC50 is 102 to 1000 nM. For `O=C(O)c1ccc2cc(-c3ccc(OCc4c(-c5c(Cl)cncc5Cl)noc4C4CC4)cc3)ccc2n1` [Example 12, 6-[4-({[5-Cyclopropyl-3-(3,5-dichloro-4-pyridinyl)-4-isoxazolyl]methyl}oxy)phenyl]-2-quinolinecarboxylic acid], the EC50 is 102 to 1000 nM. As for `CC(C)c1onc(-c2c(Cl)cccc2Cl)c1CCCOc1ccc(-c2ccc3nc(C(=O)O)ccc3c2)cc1` [Example 15, 6-[4-({3-[3-(2,6-Dichlorophenyl)-5-(1-methylethyl)-4-isoxazolyl]propyl}oxy)phenyl]-2-quinolinecarboxylic acid], the figure is 102 to 1000 nM; as for `O=C(O)c1ccc2cc(-c3ccc(OCc4c(-c5c(Cl)cccc5Cl)noc4C4CCCC4)cc3)ccc2n1` [Example 6, 6-[4-({[5-Cyclopentyl-3-(2,6-dichlorophenyl)-4-isoxazolyl]methyl}oxy)phenyl]-2-quinolinecarboxylic acid], 102 to 1000 nM. In the case of `CC[C@H](C)c1onc(-c2c(Cl)cccc2Cl)c1COc1ccc(-c2ccc3nc(C(=O)O)ccc3c2)cc1` [Example 13, 6-{4-[({3-(2,6-Dichlorophenyl)-5-[(1S)-1-methylpropyl]-4-isoxazolyl}methyl)oxy]phenyl}-2-quinolinecarboxylic acid], the EC50 is 102 to 1000 nM.
